The text below walks through data of ChEMBL document CHEMBL4024707, “Using gene expression database to uncover biology functions of 1,4-disubstituted 1,2,3-triazole analogues synthesized via a copper (I)-catalyzed reaction” (Eur J Med Chem, 2017).

Molecules are shown by their SMILES.

Format in all cases: functional
For test [1], the system named is Hep 3B2. As to the kind of experiment: Cell cycle arrest in human Hep3B cells assessed as accumulation at sub-G1 phase at 10 uM after 48 hrs in presence of curcumin by propidium iodide staining based flow cytometry (reference value: 3.7 +/- 0.4%). In general terms: A flow cytometer gives signals particle by particle.
In test [2] the test system is Hep 3B2. As to the kind of experiment: Growth inhibition of human Hep3B cells at 2.5 uM after 48 hrs in presence of curcumin by MTT assay.
For test [3], the system named is Hep 3B2. As to the kind of experiment: Cell cycle arrest in human Hep3B cells assessed as accumulation at G0/G1 phase at 10 uM after 48 hrs by propidium iodide staining based flow cytometry (reference value: 39.7 to 40.4%).

Regarding `O=C1COc2ccccc2N1Cc1cn(CCC2OCCO2)nn1`, the Activity with Hep 3B2 [1] is recorded as 21.6%. Moreover, the CI in the test on Hep 3B2 [2] turned out to be 0.96.
On to `COc1ccc(CNC(=O)Nc2ncc([N+](=O)[O-])s2)cc1`, for which the Activity in the test on Hep 3B2 [3] is 39.4%.
